The record followed here is ChEMBL document CHEMBL6114949, “Synthesis and physiological effects of new 4-aminophenol derivatives as paracetamol analogues” (Bioorg Med Chem Lett, 2025).

Series [1] concerns Rattus norvegicus. Briefly: Antipyretic activity against LPS-induced polyphasic febrile response in rats assessed as suppression of rise in core body temperature at 215 mg/kg, po treated 40 mins prior to LPS addition and measured after 10 mins. As to conditions: time 50.0 min. The series is classed as functional, organism-based.
The test system of series [2] is Rattus norvegicus. Briefly: Antipyretic activity against LPS-induced polyphasic febrile response in rats assessed as change in core body temperature at 215 mg/kg, po treated 40 mins prior to LPS addition and measured after 160 mins during phase 1 (reference value: 0.85 deg C). It counts as functional, organism-based. As to conditions: time 200.0 min.
The test system of series [3] is Rattus norvegicus. Briefly: Antipyretic activity against LPS-induced polyphasic febrile response in rats assessed as return of body temperature to background value at 215 mg/kg, po treated 40 mins prior to LPS addition and measured after 190 mins. As to conditions: time 230.0 min. The series is classed as functional, organism-based.
The test system of series [4] is Rattus norvegicus. Nature of the series: Antipyretic activity against LPS-induced polyphasic febrile response in rats assessed as suppression of rise in core body temperature at 215 mg/kg, po treated 40 mins prior to LPS addition and measured after 160 mins relative to control. The series is classed as functional. As to conditions: time 200 min, 3.333 h.
Series [5] deals with Rattus norvegicus. Briefly: Antinociceptive activity in zymosan-induced rat arthritis model assessed as nociceptive response inhibition at 215 mg/kg, ig administered once daily for 7 days and measured 1 hr post-zymosan challenge on day 7 by Randall-Selitto test (reference value: -34.6%). The series is classed as functional. As to conditions: po, 168 h, time 7 day.
Series [6] has as its system Rattus norvegicus. Briefly: Antinociceptive activity in zymosan-induced rat model of thermal nociceptive hypersensitivity assessed as nociceptive response inhibition at 215 mg/kg, ig administered once daily for 7 days and measured 1 hr post-zymosan challenge on day 7 by hot-plate test (reference value: -42.4%). The series is classed as functional. The settings on record: po, 168 h, time 7 day.

Series [7] in a line: Hepatotoxicity in zymosan-induced rat arthritis model assessed as effect on beam structure of liver at 215 mg/kg, ig administered once daily for 7 days by hematoxylin-eosin staining based histological analysis. As to conditions: in vivo, po, 168 h, time 7 day. The series is classed as toxicity, organism-based.
A short description of series [8]: Hepatotoxicity in zymosan-induced rat arthritis model assessed as effect on general architecture of liver at 215 mg/kg, ig administered once daily for 7 days by hematoxylin-eosin staining based histological analysis. The settings on record: in vivo, po, 168 h, time 7 day. The series is classed as toxicity, organism-based.
Series [9] can be described thus: Hepatotoxicity in zymosan-induced rat arthritis model assessed as effect on sinusoids elongation at 215 mg/kg, ig administered once daily for 7 days by hematoxylin-eosin staining based histological analysis. The series is classed as toxicity, organism-based, Liver. As to conditions: in vivo, po, 168 h, time 7 day.
Series [10] in a line: Hepatotoxicity in zymosan-induced rat arthritis model assessed as effect on sinusoids arrangement at 215 mg/kg, ig administered once daily for 7 days by hematoxylin-eosin staining based histological analysis. The series is classed as toxicity, organism-based, Liver. As to conditions: in vivo, po, 168 h, time 7 day.
A short description of series [11]: Hepatotoxicity in zymosan-induced rat arthritis model assessed as change in hepatocyte shape at 215 mg/kg, ig administered once daily for 7 days by hematoxylin-eosin staining based histological analysis. The series is classed as toxicity, organism-based, Liver. The settings on record: in vivo, po, 168 h, time 7 day.
Series [12] can be described thus: Hepatotoxicity in zymosan-induced rat arthritis model assessed as disruption of hepatocyte membrane at 215 mg/kg, ig administered once daily for 7 days by hematoxylin-eosin staining based histological analysis. The series is classed as toxicity, organism-based, Liver. As to conditions: in vivo, po, 168 h, time 7 day.
Series [13] is described as follows: Hepatotoxicity in zymosan-induced rat arthritis model assessed as change in hepatocyte nucleus size at 215 mg/kg, ig administered once daily for 7 days by hematoxylin-eosin staining based histological analysis. The series is classed as toxicity, organism-based, Liver. The settings on record: in vivo, po, 168 h, time 7 day.
Series [14] in a line: Hepatotoxicity in zymosan-induced rat arthritis model assessed as change in hepatocyte karyoplasm at 215 mg/kg, ig administered once daily for 7 days by hematoxylin-eosin staining based histological analysis. It counts as toxicity, organism-based, Liver. The settings on record: in vivo, po, 168 h, time 7 day.
Series [15] can be described thus: Hepatotoxicity in zymosan-induced rat arthritis model assessed as appearance of vacuoles in hepatocyte cytoplasm at 215 mg/kg, ig administered once daily for 7 days by hematoxylin-eosin staining based histological analysis. It counts as toxicity, organism-based, Liver. The settings on record: in vivo, po, 168 h, time 7 day.
Series [16] in a line: Hepatotoxicity in zymosan-induced rat arthritis model assessed as change in hepatocyte cytoplasmic appearance at 215 mg/kg, ig administered once daily for 7 days by hematoxylin-eosin staining based histological analysis. As to conditions: in vivo, po, 168 h, time 7 day. It counts as toxicity, organism-based, Liver.
A short description of series [17]: Hepatotoxicity in zymosan-induced rat arthritis model assessed as change in shape of liver central veins at 215 mg/kg, ig administered once daily for 7 days by hematoxylin-eosin staining based histological analysis. It counts as toxicity, organism-based. As to conditions: in vivo, po, 168 h, time 7 day.
Series [18] is described as follows: Hepatotoxicity in zymosan-induced rat arthritis model assessed as change in shape of liver portal tracts at 215 mg/kg, ig administered once daily for 7 days by hematoxylin-eosin staining based histological analysis. It counts as toxicity, organism-based. The settings on record: in vivo, po, 168 h, time 7 day.

Activity calls are given as the source filed them. No cut-off for these calls is given here.

On to `CCCCCCCCCCCCCCCC(=O)Nc1ccc(OCC(=O)O)cc1`, for which the outcome with Rattus norvegicus [1] and in the series on Rattus norvegicus [3] was Active. Moreover, the ΔTm with Rattus norvegicus [2] amounted to 0.28 °C. In addition, the “fold change (FC)” value with Rattus norvegicus [4] is reported as 3. The results for the inhibition in vivo at 215 mg/kg with Rattus norvegicus [5] and in the series with Rattus norvegicus [6] were 21.7% and 42.2%, respectively. Also, the Activity entry in series [7], in series [8], in series [9], in series [10], in series [11] and in series [12] was “Non-toxic” throughout. For the same compound, the Activity entry in series [13], in series [14], in [15], in series [16], in series [17] and in series [18] was “Non-toxic” each time.
